Among the data in ChEMBL document CHEMBL2363022, “Malaria Box Schistosomiasis Screening Data” (2013) are Toxicity values, retold here.

Type in all cases: functional
What all share (set-up): scale not given here

The test system of experiment [1] is Schistosoma mansoni.
In experiment [2] the test system is Schistosoma mansoni. This is another data set of the same source.
In experiment [3] the test system is Schistosoma mansoni. This is another data set of the same source.

Turning to `Brc1ccc(Nc2nc3ccccc3nc2Nc2ccc(Br)cc2)cc1`, the Toxicity was 3 in experiment [1], 4 in experiment [2] and 4 in experiment [3].

`OC1CCCCC1C1(NC(=S)Nc2ccccc2)CCCCC1` (configuration not stated): the Toxicity in experiment [1], in experiment [2] and in experiment [3] was 0 in each case.

Take `O=C(NCc1ccco1)C1CCN(S(=O)(=O)c2ccc(Br)cc2)CC1`: the Toxicity in experiment [1], in experiment [2] and in experiment [3] was 0 each time.

In the case of `O=C(Nc1ccccc1O)c1ccc(Oc2cccc(C(=O)Nc3ccccc3O)c2)cc1`, the figures for the Toxicity in experiment [1], in experiment [2] and in experiment [3] were 0, 2 and 2, respectively.

Consider `CC1(c2ccccc2)Nc2ccccc2-c2nc3ccccc3n21` (configuration not stated), for which the Toxicity in experiment [1], in experiment [2] and in experiment [3] was 0 throughout.

As to `CCN(CC)c1ccc(NC(=O)c2cccs2)cc1`, the Toxicity in experiment [1], in experiment [2] and in experiment [3] was 0 each time.

For `COc1ccc(CCn2c(=N)c(C(=O)NCc3cccnc3)cc3c(=O)n4cccc(C)c4nc32)cc1`, the Toxicity is 2 in experiment [1], 0 in experiment [2] and 4 in experiment [3].

Regarding `CN1C=C(c2ccc3ccccc3n2)C(c2c[nH]c3ccccc23)c2ccccc21` (configuration not stated), the Toxicity in experiment [1], in experiment [2] and in experiment [3] was 0 in each case.

Take `Cc1ccc(C)c(Cn2c(N3CCC(C(=O)NCc4cccs4)CC3)nc3ccccc32)c1`: the Toxicity in experiment [1], in experiment [2] and in experiment [3] was 0 each time.

As for `CCOC(=O)c1cnc2ccc(Cl)cc2c1NCCCN(C)C`, the Toxicity in experiment [1], in experiment [2] and in experiment [3] was 1 throughout.

Regarding `CCN(CC)c1cc(C)c2cc(NC(=O)c3cccc(OC)c3)ccc2n1`, the values for the Toxicity in experiment [1], in experiment [2] and in experiment [3] were 2, 0 and 0, respectively.

For `FC(F)(F)c1cccc(Nc2nc3ccccc3nc2Nc2cccc(C(F)(F)F)c2)c1`, the Toxicity in experiment [1] is recorded as 3; in experiment [2] it was 4; in experiment [3] it was 4.

As to `COc1ccc(CN2CCCC(C(=O)c3ccc(C(F)(F)F)cc3)C2)c(O)c1` (configuration not stated), the Toxicity in experiment [1], in experiment [2] and in experiment [3] was 0 each time.

For `O=C(Nc1ccc(-c2nc3cc4ccccc4cc3[nH]2)cc1)c1cccc(Br)c1`, the Toxicity in experiment [1] amounted to 0; in experiment [2], 0; in experiment [3], 2.

Take `COc1ccc(C2=C(c3ccc(OC)cc3)C3(c4ccccc4)C(=O)C2(c2ccccc2)C2C(=O)N(c4ccc(C)cc4)C(=O)C23)cc1` (configuration not stated): the Toxicity in experiment [1], in experiment [2] and in experiment [3] was 0 throughout.

As to `COc1ccc(-c2nc(N3CCN(C(=O)C4CCCCC4)CC3)c3c4c(sc3n2)CCCC4)cc1`, the Toxicity in experiment [1], in experiment [2] and in experiment [3] was 0 in each case.

With `Cc1cc(NC(=O)c2ccc(-c3ccccc3)cc2)no1`, the Toxicity in experiment [1], in experiment [2] and in experiment [3] was 0 each time.

For the compound `CN1CCN(c2c3c(c(C#N)c4nc5ccccc5n24)CCC3)CC1`, the Toxicity in experiment [1], in experiment [2] and in experiment [3] was 0 in each case.

Regarding `COc1ccc(C=C2SC(=N)N(c3ccccc3OC)C2=O)cc1`, the Toxicity in experiment [1], in experiment [2] and in experiment [3] was 0 in each case.

Take `CCCc1c(C)nc2ccccc2c1O`: the Toxicity in experiment [1], in experiment [2] and in experiment [3] was 0 in each case.

Consider `O=C(CCl)NCCOc1ccc(Cl)cc1Cl`, for which the Toxicity in experiment [1] was determined as 0; in experiment [2], 3; in experiment [3] it was 4.

In the case of `CCN(CC)CCNc1ccnc2cc3ccccc3cc12.O=P(O)(O)O`, the Toxicity in experiment [1] is given as 2; in experiment [2], 3; in experiment [3], 3.

For `COc1cc2c3cc1Oc1c(OC)c(OC)cc4c1C(Cc1ccc(O)c(c1)Oc1ccc(cc1)CC3N(C)CC2)N(C)CC4.Cl` (configuration not stated), the Toxicity in experiment [1] was 2; in experiment [2], 3; in experiment [3], 4.

For `CCOc1cc(Br)c(C(C)NC(=O)c2cccc(OC)c2)cc1OCC` (configuration not stated), the Toxicity in experiment [1], in experiment [2] and in experiment [3] was 0 in each case.

For the compound `Cc1ccc(N2C(=O)C3C(C2=O)C2(c4ccccc4)C(=O)C3(c3ccccc3)C(c3ccccc3)=C2c2ccccc2)cc1` (configuration not stated), the Toxicity in experiment [1], in experiment [2] and in experiment [3] was 1 each time.

As for `COc1ccc(-c2nc(NC(=O)CS(=O)(=O)c3ccc(F)cc3)sc2C)cc1`, the Toxicity in experiment [1], in experiment [2] and in experiment [3] was 0 in each case.

For the compound `CCOC(=O)c1cnc2ccc(OC)cc2c1NCc1ccccc1`, the Toxicity in experiment [1] was determined as 1; in experiment [2] it was 0; in experiment [3], 1.

Turning to `OC(Cn1nnc2ccccc21)Cn1c2ccc(Br)cc2c2cc(Br)ccc21` (configuration not stated), the Toxicity in experiment [1], in experiment [2] and in experiment [3] was 0 each time.

Turning to `COc1cccc(C(=O)NC(c2ccc(C)cc2)c2cc(Cl)c3cccnc3c2O)c1` (configuration not stated), the Toxicity in experiment [1] came out at 1; in experiment [2] it was 4; in experiment [3], 4.

As to `Br.CCn1c2c(c(=N)c3c1CCC3)CCCC2`, the Toxicity in experiment [1], in experiment [2] and in experiment [3] was 0 each time.

Regarding `COc1ccc(C2NCCc3c2[nH]c2ccccc32)cc1CN1CCN(c2ccc(F)cc2)CC1.Cl` (configuration not stated), the Toxicity in experiment [1] is 3; in experiment [2], 4; in experiment [3], 4.

In the case of `CCCCC(O)(c1ccc(Cl)cc1)C(CN1CCOCC1)c1ccc(Cl)cc1.Cl` (configuration not stated), the Toxicity was found to be 0 in experiment [1], 0 in experiment [2] and 4 in experiment [3].

`CCCCCn1c(=N)n(CC(O)COc2cccc(C)c2)c2ccccc21.Cl` (configuration not stated): the Toxicity is listed as 2 in experiment [1], 4 in experiment [2] and 4 in experiment [3].

Regarding `CCOc1cccc(C(=O)Nc2ccc(-c3nc4ccccc4[nH]3)cc2)c1`, the Toxicity in experiment [1] was 0; in experiment [2], 0; in experiment [3] it was 2.

Regarding `CN1c2ccccc2N(C)C1c1ccc2c(c1)OCO2`, the results for the Toxicity in experiment [1], in experiment [2] and in experiment [3] were 1, 0 and 0, respectively.

Consider `CCOc1ccc(-c2nonc2NC(=O)c2cccc(C)c2)cc1OCC`, for which the Toxicity in experiment [1], in experiment [2] and in experiment [3] was 0 in each case.

As for `CN(C)c1ccc(C=Cc2nc(=O)c3ccccc3o2)cc1`, the Toxicity in experiment [1], in experiment [2] and in experiment [3] was 0 throughout.

With `COc1ccc(C2N(C)c3ccccc3N2C)cc1`, the Toxicity in experiment [1], in experiment [2] and in experiment [3] was 0 each time.

On to `FC(F)(F)c1cccc(Nc2nc(-c3ccccc3)nc3ncccc23)c1`, for which the Toxicity in experiment [1], in experiment [2] and in experiment [3] was 0 in each case.

`CC(C)(C)c1ccc(C(=O)Nc2c3c(nn2-c2cccc(Cl)c2)CSC3)cc1`: the Toxicity in experiment [1], in experiment [2] and in experiment [3] was 0 throughout.

Consider `OCCNc1nc(Nc2ccc(Cl)c(Cl)c2)nc2ccccc12`, for which the Toxicity was determined as 2 in experiment [1], 0 in experiment [2] and 4 in experiment [3].

Consider `O=C(NCc1ccco1)C1CCN(S(=O)(=O)c2ccc(Cl)cc2)CC1`, for which the Toxicity in experiment [1], in experiment [2] and in experiment [3] was 0 throughout.

Turning to `COc1ccc(CCN2C(=O)c3[nH]nc(-c4cc(Cl)c(C)cc4O)c3C2c2ccccc2F)cc1` (configuration not stated), the Toxicity in experiment [1], in experiment [2] and in experiment [3] was 0 throughout.

As to `O=C(O)C(=O)O.Oc1ccccc1CN1CCN(C(c2ccccc2)c2ccccc2)CC1`, the Toxicity in experiment [1], in experiment [2] and in experiment [3] was 0 throughout.

`COc1nc(Nc2ccc(C(C)C)cc2)nc(OC)n1`: the Toxicity in experiment [1], in experiment [2] and in experiment [3] was 0 in each case.

Consider `Cc1c(C)n(CC(O)CNC2CCCCC2C)c2ccccc12` (configuration not stated), for which the Toxicity in experiment [1], in experiment [2] and in experiment [3] was 0 each time.

With `Cc1sc(NC(=O)c2ccccc2)c(C(c2cccs2)N2CCN(c3ccccc3)CC2)c1C` (configuration not stated), the Toxicity in experiment [1], in experiment [2] and in experiment [3] was 0 each time.

Turning to `CN(C)c1ccc(N=Cc2ccc(N3CCOCC3)cc2)cc1`, the Toxicity in experiment [1], in experiment [2] and in experiment [3] was 0 each time.

Turning to `CCCC(c1nnnn1C1CCCCC1)N1CCN(C(=O)c2ccco2)CC1.Cl` (configuration not stated), the Toxicity in experiment [1], in experiment [2] and in experiment [3] was 0 in each case.

For the compound `Cc1ccc(Cn2c(N3CCC(C(=O)NCc4cccs4)CC3)nc3ccccc32)cc1`, the Toxicity in experiment [1], in experiment [2] and in experiment [3] was 0 each time.

Regarding `CC(O)(c1ccc(Cl)cc1)C(CN1CCCCC1)c1ccccc1.Cl` (configuration not stated), the Toxicity in experiment [1], in experiment [2] and in experiment [3] was 0 each time.

Turning to `COc1ccc(C(=O)C(CCC(CNC(C)(C)C)C(=O)c2ccc(OC)cc2)CNC(C)(C)C)cc1` (configuration not stated), the Toxicity in experiment [1] was found to be 0; in experiment [2], 3; in experiment [3] it was 4.

Turning to `Cc1ccc(-c2nc3ccccc3o2)cc1NCc1cc(Cc2ccccc2)ccc1O`, the Toxicity in experiment [1], in experiment [2] and in experiment [3] was 0 throughout.

For `Cc1cc(Nc2ccc3ccccc3c2)n2ncnc2n1`, the Toxicity in experiment [1] turned out to be 0; in experiment [2] it was 1; in experiment [3] it was 1.
